The source of these data is paper PMC9569768, “Selective Anti-Leishmanial Strathclyde Minor Groove Binders Using an N-Oxide Tail-Group Modification” (International Journal of Molecular Sciences, 2022).

The structures appear in SMILES notation. ≈ marks a conversion by molar mass, not a printed value. Read-outs that look alike come from different tables or passages of the source. Marks after values point to notes of the source that are not given here.

One data set has as its system genomic DNA from salmon. Kind of data set: UV-Vis DNA thermal melting, genomic DNA. The class given is binding. Particulars: 10 µM S-MGB, 0.02 mg/mL salmon gDNA. The protocol: Salmon DNA (D1626, Sigma-Aldrich) at 1 mg/mL in 1 mM phosphate buffer (pH 7.4) containing 0.27 mM KCl and 13.7 mM NaCl (P4417, Sigma-Aldrich) was annealed at 90 °C for 10 min. MGB-BP-3 at 10 mM in DMSO was diluted with the same phosphate buffer, and combined with the salmon DNA stock, to yield a single sample with 10 µM S-MGB and 0.02 mg/mL gDNA in 1 mM phosphate buffer containing 0.27 mM KCl and 13.7 mM NaCl. Control samples containing only MGB-BP-3 or gDNA were prepared, respectively. The samples were melted at a rate of 0.5 °C/min from 45 °C to 90 °C, with spectra recorded at 260 nm on a UV-1900 UV-vis spectrophotometer fitted with a Peltier temperature controller (Shimadzhu, Kyoto, Japan), using LabSolutions (Tm Analysis) software. The melting temperatures (Tms) of the MGB-BP-3:DNA complexes were determined by fitting a sigmoidal function using a Boltzmann distribution in OriginPro. Two independent experiments were carried out and the values quoted with an error no worse than ±0.5 °C.

For data set [1], the system named is DNA sequence 5′-CGCATATATGCG-3′. Kind of data set: Native mass spectrometry of DNA binding stoichiometry. Particulars: 9 μM DNA, 100 μM S-MGB, 150 mM ammonium acetate. The protocol: DNA sample preparation: The DNA oligonucleotide sequence 5′-[…]-3′ was purchased in lyophilised form from Alpha DNA, Montreal, Canada, and used without further purification; its purity was assessed via NMR. We prepared 100 μM stock solutions of DNA with 150 mM ammonium acetate buffer solution (Fisher Scientific, Loughborough, Leicestershire, UK) and 2 mM potassium chloride solution (Fisher Scientific, Loughborough, Leicestershire, UK). This solution was annealed at 90 degrees for 10 min and allowed to cool to room temperature. A total of 10 mM S-MGB stock in 100% DMSO (Sigma-Aldrich, St. Louis, MO, USA) was diluted to a 1 mM S-MGB solution with 150 mM ammonium acetate. The final samples were prepared from this solution to yield final concentrations of 9 μM DNA, 100 μM KCl, 100 μM S-MGB and 1% DMSO. DNA solutions containing no S-MGB included 1% DMSO and were used as controls.
Mass spectrometry measurements: Native mass spectrometry experiments were carried out using a Synapt G2Si instrument (Waters, Manchester, UK) with a nanoelectrospray ionisation source (nESI). Mass calibration was performed using a separate infusion of NaI cluster ions. […]

The subject of data set [2] is L. donovani LV82 luc1 (MHOM/ET/67:LV82). As to the kind of experiment: Anti-Leishmania assay, intracellular amastigotes in bone marrow-derived macrophages, luciferase readout. Particulars: read-out: L. donovani IC50. The class given is cell-based. As for the experimental part: The compounds were screened in vitro for their antileishmanial activity against the intracellular amastigote stage. Briefly, bone marrow-derived macrophages (0.5 × 10^5 cells per well) were infected using a 20:1 host cell: parasite ratio with luciferase-expressing L. donovani LV82 luc1 (MHOM/ET/67:LV82). […] Amphotericin B solution was used as a positive control and was used at a starting concentration of 1 μM. The medium was removed from each sample at 72 h post-infection and replaced with 150 μL luciferin solution (150 μg mL^−1 luciferin in serum-free medium). The amount of bioluminescent signal emitted/well was determined and used to calculate the mean suppression in the bioluminescent signal for each test sample compared to the mean control values. The EC50 values were calculated and the mean EC50 was calculated from the three separate experiments.

The subject of another data set is S. aureus ATCC 43300. Kind of data set: Antibacterial assay (MIC, broth dilution). The class given is cell-based. Particulars: Staphylococcus aureus, read-out: S. aureus MIC. As for the experimental part: The inhibition of bacterial growth was determined by OD600, using a Tecan Infinite M Nano plate reader. The percentage of growth inhibition was calculated for each well, using the negative control (medium only) and positive control (bacteria without inhibitors) on the same plate. […] Each MIC determination was carried out in triplicate, on separate days.

For the next data set, the system named is d(5′-CGCATATATGCG-3′). Kind of data set: UV-Vis DNA thermal melting, short DNA oligo. The class given is binding. Particulars: 2 MGB: 1 DNA, 10 mM PBS pH 7.4, 50 mM NaCl. As for the experimental part:
The DNA oligonucleotide sequence 5′-[…]-3′ was purchased in lyophilised form from Alpha DNA, Canada, and used without further purification, with purity assessed via NMR. The DNA oligomer was melted at a rate of 0.5 °C/min in 10 mM PBS buffer solution (pH 7.4) with 50 mM NaCl on a Cary 300 BIO UV–visible spectrophotometer fitted with a Peltier temperature controller. The programs were set and the data were processed using Cary WinUV software. The duplex oligomer was made to a concentration of 6 × 10^−6 M, heated to 90 °C and allowed to cool to room temperature unaided. This was mixed with sufficient S-MGB to give the appropriate ratio of 2 MGB: 1 DNA. For the reference melting temperature, no S-MGB was added. Samples were heated from 10 °C to 90 °C and cooled from 90 °C to 10 °C, with the spectra being recorded at 260 nm during both of these cycles. The melting temperatures (Tm) of the duplex oligomers were determined by fitting a sigmoidal function using a Boltzmann distribution in OriginPro.

The test system of data set [3] is bloodstream form T. b. brucei (Lister 427). Set-up: method as in PMID 34447938. The note with it: data previously reported ref 19; cited from earlier work.
For data set [4], the target named is T1, hERG ion channel (Homo sapiens, UniProt Q12809).
T1 construct: expressed in transfected cells; host or cells: HEK293 cells (gift of Dr. J. Mitcheson, University of Leicester)
T1 sequence (Q12809 whole entry): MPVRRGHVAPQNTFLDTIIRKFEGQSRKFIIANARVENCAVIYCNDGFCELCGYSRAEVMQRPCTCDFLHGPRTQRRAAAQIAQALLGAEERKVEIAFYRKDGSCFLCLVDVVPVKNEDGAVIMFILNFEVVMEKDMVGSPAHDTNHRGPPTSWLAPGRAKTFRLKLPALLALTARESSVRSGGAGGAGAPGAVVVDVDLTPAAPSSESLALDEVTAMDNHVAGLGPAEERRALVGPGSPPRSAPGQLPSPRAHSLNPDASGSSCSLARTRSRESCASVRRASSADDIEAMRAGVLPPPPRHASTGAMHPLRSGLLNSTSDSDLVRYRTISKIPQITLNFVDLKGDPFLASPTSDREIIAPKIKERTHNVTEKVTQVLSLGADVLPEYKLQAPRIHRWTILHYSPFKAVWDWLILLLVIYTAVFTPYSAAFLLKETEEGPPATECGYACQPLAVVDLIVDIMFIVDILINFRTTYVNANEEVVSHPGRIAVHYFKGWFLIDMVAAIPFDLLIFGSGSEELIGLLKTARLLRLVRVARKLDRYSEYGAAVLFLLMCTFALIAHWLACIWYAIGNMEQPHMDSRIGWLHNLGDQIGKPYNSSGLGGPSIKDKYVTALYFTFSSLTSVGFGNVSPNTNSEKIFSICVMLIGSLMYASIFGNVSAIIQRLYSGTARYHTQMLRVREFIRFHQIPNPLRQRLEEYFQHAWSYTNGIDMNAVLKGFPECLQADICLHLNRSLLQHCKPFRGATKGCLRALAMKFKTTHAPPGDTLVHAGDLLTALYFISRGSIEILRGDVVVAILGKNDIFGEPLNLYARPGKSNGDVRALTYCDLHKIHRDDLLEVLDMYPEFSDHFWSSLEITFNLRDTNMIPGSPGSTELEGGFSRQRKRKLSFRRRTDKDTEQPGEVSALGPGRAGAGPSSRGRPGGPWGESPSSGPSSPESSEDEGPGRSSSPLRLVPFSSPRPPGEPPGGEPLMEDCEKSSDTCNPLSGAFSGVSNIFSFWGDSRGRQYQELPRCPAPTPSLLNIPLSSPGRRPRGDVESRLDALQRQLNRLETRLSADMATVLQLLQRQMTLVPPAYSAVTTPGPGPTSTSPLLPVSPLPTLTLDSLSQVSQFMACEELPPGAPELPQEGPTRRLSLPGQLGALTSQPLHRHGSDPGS
Set-up: method as in PMID 22948178. Particulars: compounds at 10 μM; data previously reported ref 20; cited from earlier work.

The subject of data set [5] is bloodstream form T. b. brucei (Lister 427). Kind of data set: Anti-Trypanosoma alamarBlue assay. The class given is cell-based. The protocol: The bloodstream form T. b. brucei (Lister 427) was cultured in HMI-11 medium (Gibco) supplemented with 10% heat-inactivated FBS (Gibco), at 37 °C in a humidified 5% CO2 environment.
The EC50 values were determined using the in vitro alamarBlue assay. T. b. brucei parasites (2 × 10^4 cells per mL), were seeded into serial dilutions of the test compounds to a final volume of 200 μL and incubated for 48 h, after which 20 μL of 0.49 mM resazurin dye (Sigma-Aldrich, St. Louis, MO, USA) was added and the cells were incubated for a further 24 h. The reduction of resazurin was measured using a fluorimeter (FLUOstar Optima, BMG Labtech, Ortenberg, Germany) at 544 nm excitation and 590 nm emission wavelengths. The EC50 values were determined using Prism 5 software (GraphPad, San Diego, CA, USA). All experiments were carried out on at least three independent occasions.

Data set [6] addresses T1, hERG ion channel. Kind of data set: hERG cell-binding assay, [3H]-astemizole displacement in hERG-transfected HEK293 cells. The note with it: compounds at 10 μM. As for the experimental part:
hERG-transfected HEK293 cells were kindly gifted by Dr. J. Mitcheson, University of Leicester. The cell cultures were maintained in Gibco Dulbecco’s Modified Eagle Medium (D-MEM) + GlutaMAX1^TM medium supplemented with 10% foetal bovine serum ([…]), 1% penicillin–streptomycin and 0.8% Geneticin in a Sanyo humidified incubator (37 °C, 5% CO2). Once at 80–90% confluency, the cells were lifted using a PBS-based, enzyme-free Cell Dissociation Buffer. The cell suspension was counted using a Bright Line Haemocytometer and centrifuged at 1000 rpm for 5 min, and the supernatant discarded. The pellet was resuspended in ice-cold Tris-HCl, pH 7.4 (20 mM), with 1% phenylmethylsulfonyl fluoride (PMSF). […]
[^3H]-Astemizole binding in hERG-transfected HEK293 cells was performed in a […] total volume according to the following conditions: cells (~200,000 cells per assay tube, […]), [^3H]- astemizole (0.5 nM, […]), incubation buffer (10 mM HEPES, pH 7.4, 130 mM NaCl, 5 mM KCl, 0.8 mM MgCl2, 10 mM glucose, 0.1% BSA, 100 mL) for the total binding or drug compound ([…], 100 mL) for the single-point assay. Non-specific binding was determined using nonradiolabelled astemizole ([…], 100 mL). […] The radioactivity retained on the filters (pre-soaked in 0.5% PEI) was measured via counting in scintillation fluid (4 mL, Tri-Carb 1500 Packard; Emulsifier-Safe).

Setting [7] is: LUC1, intracellular amastigotes, 72 h post-infection, mean of 3 experiments.

Turning to `Cn1cc(NC(=O)c2cc(NC(=O)c3ccc(/C=C/c4cnc5ccccc5c4)cc3)cn2C)cc1C(=O)NCCN1CCOCC1` [S-MGB-3, 1-methyl-N-[1-methyl-5-({[2-(4-morpholinyl)ethyl]amino}carbonyl)-1H-pyrrol-3-yl]-4-({4-[(E)-2-(3-quinolinyl)ethenyl]benzoyl}amino)-1H-pyrrole-2-carboxamide], the Tm increase with genomic DNA from salmon was 12.6 °C. For the same molecule, in the data set with genomic DNA from salmon (gDNA alone 69.6 ± 0.3), the “Melting Temperature of gDNA + S-MGB complex” value worked out at 82.2 ± 0.1 °C. The figures for the “binding stoichiometry to double-stranded DNA by nMS” value in data set [1] and in data set [1] (listed as S-MGB-BP-3) were “selectively bind to double-stranded DNA as a dimer only” and “bind 2xS-MGB molecules”, respectively.
As for `N=C(N)c1ccc(OCCCCCOc2ccc(C(=N)N)cc2)cc1` [compound 1], the concentration for half-maximal inhibition (IC50) in data set [2] (setting [7]) turned out to be 3.5 ± 0.1 µM. Further, the MIC in the data set with S. aureus ATCC 43300 (ATCC43300, 18 h, 37 °C) stood at 50 µM (≈ 17 µg/mL). Further, the “ΔTm, DNA melting temperature increase” value in the data set on d(5′-CGCATATATGCG-3′) is 11 °C. For the same molecule, the “T. b. brucei MIC” value in [3] is 0.78 * μM.
In the case of `N=C(N)c1ccc(-c2cc3ccc(C(=N)N)cc3[nH]2)cc1` [compound 2], the IC50 in data set [2] (setting [7]) stood at 5.7 ± 0.4 µM. The MIC with S. aureus ATCC 43300 (ATCC43300, 18 h, 37 °C) was 3.12 µM (≈ 0.865 µg/mL). Further, the “ΔTm, DNA melting temperature increase” value in the data set with d(5′-CGCATATATGCG-3′) was found to be 15 °C. In addition, in data set [3], the “T. b. brucei MIC” value is on record as 1.56 * μM. Moreover, the “hERG % displacement of [3H]-astemizole” value on hERG ion channel [4] is reported as 58 ** %.
In the case of `Cn1cc(NC(=O)c2cc(NC(=O)c3cc(NC=O)cn3C)cn2C)cc1C(=O)NCCC(=N)N` [compound 3], the half-inhibitory concentration (IC50) in [2] (LUC1, 72 h) is 5.1 ± 0.7 µM. Moreover, the MIC in the data set with S. aureus ATCC 43300 (ATCC43300, 18 h) was found to be 0.78 µM (≈ 0.376 µg/mL). Further, the “ΔTm, DNA melting temperature increase” value with d(5′-CGCATATATGCG-3′) was 17 °C. In addition, the “T. b. brucei MIC” value in [3] was <0.19 * μM. On hERG ion channel [4], the “hERG % displacement of [3H]-astemizole” value is 64 ** %.
Regarding `COc1cccc(/C=C/c2ccc(C(=O)Nc3cc(C(=O)Nc4cc(C(=O)NCC[N+]5([O-])CCOCC5)n(C)c4)n(C)c3)cc2)c1` [compound 206], the IC50 in data set [2] (setting [7]) worked out at 2.4 ± 0.3 µM. For the same molecule, the minimal inhibitory concentration (MIC) in data set [5] is 6.25 µM (≈ 3.92 µg/mL); in the data set with S. aureus ATCC 43300 (ATCC43300, 18 h, 37 °C), over 100 µM. For the same molecule, the “hERG % displacement of [3H]-astemizole” value on hERG ion channel [6] came to 44%. For the same molecule, in the data set with d(5′-CGCATATATGCG-3′), the “ΔTm, DNA melting temperature increase” value is 1 °C.
Take `COc1ccc(/C=C/c2ccc(C(=O)Nc3cc(C(=O)Nc4cc(C(=O)NCC[N+]5([O-])CCOCC5)n(C)c4)n(C)c3)cn2)cc1` [compound 207]: the IC50 in data set [2] (setting [7]) was found to be 3.1 ± 1 µM. Further, the minimum inhibitory concentration (MIC) is 12.5 µM (≈ 7.85 µg/mL) in data set [5] and over 100 µM in the data set on S. aureus ATCC 43300 (ATCC43300, 18 h, 37 °C). For the same molecule, the “hERG % displacement of [3H]-astemizole” value at hERG ion channel [6] was 45%. Further, the “ΔTm, DNA melting temperature increase” value in the data set with d(5′-CGCATATATGCG-3′) came to 1 °C.
